From US6716858B1, “Methods for inhibiting diabetic complications” (Kansas University Medical Center, priority 1995, dated 2004)
Like-named read-outs stand apart in the source and are kept apart here. Each block holds one molecule with its values, some of them ahead of it.

Tests used:
[1] = system: Sprague-Dawley rats, glomerular changes; assay type: in vivo, rat; conditions: for effect of treatment on loss of Heparan Sulfate Proteoglycan side-chain staining (mAb JM-403): rats injected with Amadori-RSA or AGE-RSA (both cases); for microalbuminuria / albuminuria: rats receiving Amadori-RSA or AGE-RSA
Protocol: Male Sprague-Dawley rats (Sasco, 100 g) were used. After a 1 week adaptation period, rats were placed in metabolic cages to obtain a 24 hour urine specimen for 2 days before administration of injections. Rats were then divided into experimental and control groups and given tail vein injections with either saline, unmodified RSA (50 mg/kg), Amadori-RSA (50 mg/kg), NaBH4-reduced Amadori-RSA (50 mg/kg), or AGE-RSA (50 mg/kg).
Rats injected with Amadori-RSA and AGE-RSA were then either left untreated, or further treated by the administration of either aminoguanidine (AG; 25 mg/kg), pyridoxamine (PM; 25 mg/kg), or a combination of AG and PM (10 mg/kg each) through the drinking water. Body weight and water intake of the rats were monitored weekly in order to adjust dosages. At the conclusion of the experimental study the rats were placed in metabolic cages to obtain 24 hour urine specimen for 2 days prior to sacrificing the animals.
After perfusion with saline, kidney sections were fixed in ice-cold 10% neutral buffered formalin. Paraffin-embedded tissue sections from all rat groups (n=4 per group) were processed for staining with Harris' alum hematoxylin and eosin (H&E), perodic acid/Schiff reagent (PAS), and alcian blue (pH 1.0 and pH 2.5) stains for histological examination. The alcian blue sections were scored by two investigators in a blinded fashion.
Parrafin-embedded sections were deparaffinized and then blocked with 10% goat serum in PBS for 30 min at room temperature. […] The sections were then rinsed for 30 min with PBS in the dark, mounted in aqueous mounting media for immunocytochemistry (Biomeda), and cover slipped. Sections were scored in a blinded fashion. Kidney sections were evaluated by the number and intensity of glomerular staining in 5 regions around the periphery of the kidney. Scores were normalized for the immunofluorescent score per 100 glomeruli with a scoring system of 0-3.
All animals studies were carried out in conformance with institutional guidelines for animal research protocols. Male Sprague-Dawley 100 g rats (Sasco Co., Omaha Nebr.) were used in these studies. After a 1 week adaptation period, rats were placed in metabolic cages for 2 days to get two 24 hour urine specimens before starting treatment. Rats were then given daily single tail vein injections for 6 weeks according to the following treatment groups: saline, unmodified RSA (50 mg/kg), Amadori-RSA (50 mg/kg), NaBH4-reduced Amadori-RSA (50 mg/kg), and AGE-RSA (50 mg/kg). Groups of rats injected with Amadori-RSA or AGE-RSA were also administered aminoguanidine (25 mg/kg/day), pyridoxamine (25 mg/kg/day), a combination of the two (10 mg/kg/day each), or with nothing added to the drinking water. Body weight and water intake of the rat were monitored weekly in order to adjust dosages. At the conclusion of the study, the rats were placed in metabolic cages for two days to get two 24 hour urine specimens before sacrificing the animals.
Total protein in urine was determined by Bio-Rad assay. Albumin in urine was determined by competitive ELISA using rabbit anti-rat serum albumin (Cappell) as primary antibody (1:2000) and goat anti-rabbit IgG (Sigma) as a secondary antibody (1:2000). Urine was tested with Multistix 8 SG (Miles) for glucose, ketone, specific gravity, blood, pH, protein, nitrite and leukocytes. Creatinine measurements were performed with a Beckman creatinine analyzer II. Intracardiac blood samples were collected before termination and were used in the determination of creatinine clearance, blood glucose (glucose oxidase, Sigma), fructosamine (nitroblue tetrazolium, Sigma), and glycated Hb (Glycotest II analytical boronate columns, Pierce).
After perfusion with saline, kidney sections were fixed in ice-cold 10% neutral buffered formalin. […]

[2] = Drug and metabolite levels in plasma and urine, STZ diabetic rat study; assay type: in vivo; conditions: for concentration at 28 weeks / concentration at 21 week: rat, plasma, oral; for concentration at 28 weeks: diabetic animals; for concentration at 21 week: week 21, 4 animals, read-out: Pyridoxamine in plasma
Protocol: Animal studies. Diabetes was induced by a single tail vein injection of 45 mg/kg of STZ in 0.1 M sodium citrate buffer, pH 4.5. Control animals were sham injected with buffer only. Diabetes was confirmed by measuring blood glucose levels at 2 and 3 days after the STZ-injection. Animals with plasma glucose higher than 16 mM were classified as diabetic. The diabetic rats were divided randomly into an untreated diabetic group (n=12) and two diabetic treatment groups, receiving either PM (n=13) or AG (n=12) at 1 g/L in drinking water. Two non-diabetic control groups were included, one receiving no treatment (n=13), the other receiving PM(HCl)2 at 2 g/L in drinking water (n=12); the higher dose of PM in the PM-treated control group was designed to compensate, in part, for the lower water intake of non-diabetic, compared to diabetic animals. All animals were housed individually with a light dark cycle of 12 hours each, and had free access to food and water. To maintain body weight and to limit hyperglycemia, diabetic animals received 3 IU of ultralente insulin (Humulin U, Eli Lilly) three times per week; this was increased to 5 IU after week 15 to adjust for the increase in body weight.
Measurement of drug levels in plasma and urine. PM and AG concentrations in plasma were measured by reverse phase high performance liquid chromatography (RP-HPLC). PM and its B6 vitamers were assayed as described by Sampson and O'Connor (Nutrition Res. 9:259-272 (1989)) and Sakurai et al. (J. Nutr. Sci. Vitaminol. 37:341-348 (1991)), using 293/393 nm excitation and emission wavelengths. AG was quantified at 380 nm as the 4-nitrobenzaldehyde conjugate (Beaven et al. 1969. J. Pharmacol. Exp. Therapeutics 165:14-22).

[3] = Amadori-RSA injected rats, 6 weeks
[4] = rats injected with Amadori-RSA or AGE-RSA
[5] = 6 weeks, n = 4, average with standard error

concentration at 28 weeks ([2]; 1 g/L in drinking water): 87 ± 10 µM
Structure (SMILES): N=C(N)NN [aminoguanidine, reference compound]
effect of treatment on glomerular albumin cross-linking ([1]; AGE-RSA injected rats): intermediate results but did not lead to statistically significant differences from either the controls or from the untreated subgroup
effect of treatment on glomerular volume (GV) ([1]; AGE-RSA injected rats, 6 weeks): significant elevation in GV persisted
effect of treatment on HS loss ([1]; Amadori-RSA injected rats): appeared to not prevent this loss
effect of treatment on glomerular volume (GV) [1, 3]: No statistically significant differences
effect of treatment on elevated glomerular staining for RSA [1, 4]: not with AG
effect of treatment on increase in average glomerular volume [1, 4]: No effect

urinary PM ([2]; 23 weeks, PM intake 801±22 μmol/day): 824 ± 44 µmol/day
plasma PM concentration ([2]; non-diabetic animals, PM(HCl)2 2 g/L in drinking water, from first week): ~6 µM
concentration at 21 week ([2]; 1 g/L in drinking water, Diabetic + PM (1 g/L)): 76 ± 18 µM
concentration at 21 week ([2]; 2 g/L in drinking water, Control + PM (2 g/L)): 6.3 ± 2.1 µM
concentration at 28 weeks ([2]; 1 g/L in drinking water): 106 ± 17 µM
Structure (SMILES): Cc1ncc(CO)c(CN)c1O [pyridoxamine]
Alcian Blue pH 1.0, scoring of glomerular staining (sulfated glycosaminoglycans) [1, 5]: 2.62 ± 0.24
Alcian Blue pH 2.5, scoring of glomerular staining (acidic glycosaminoglycans) [1, 5]: 1.56 ± 0.21
HS core protein (Ab BL-31), scoring of glomerular staining [1, 5]: 234 ± 8
effect of treatment on glomerular albumin cross-linking ([1]; AGE-RSA injected rats): completely blocked
effect of treatment on glomerular volume (GV) ([1]; AGE-RSA injected rats, 6 weeks): completely prevented
effect of treatment on glomerular albumin cross-linking ([1]; Amadori-RSA injected rats): significantly lower cross-linking than Aminoguanidine
effect of treatment on glomerular volume (GV) [1, 3]: no significant changes from controls
Creat C-2wk ([1]; creatinine clearance at 2 weeks, n = 4): 0.66 ± 0.07 ml/(min*100g)
Creat C-6wk ([1]; creatinine clearance at 6 weeks, n = 4): 0.66 ± 0.17 ml/(min*100g)
effect of treatment on elevated glomerular staining for RSA [1, 4]: Significant reduction of this effect
effect of treatment on increase in average glomerular volume [1, 4]: A significant reduction of this effect
effect of treatment on reduced Heparan Sulfate Proteoglycan Core protein staining [1, 4]: A reduction of this effect
effect of treatment on loss of Heparan Sulfate Proteoglycan side-chain staining (mAb JM-403) [1]: completely prevented this loss
effect of treatment on loss of Heparan Sulfate Proteoglycan side-chain staining (mAb JM-403) ([1]; listed as PM): A significant reduction of this effect
microalbuminuria / albuminuria ([1]; 6 weeks): very low intra-group scatter and to the lowest means
microalbuminuria / albuminuria ([1]; 6 weeks, listed as PM): none was seen if PM was co-administered
